# Format: physicochemical
# Protocol: In one approach, the HOF encapsulated guest was prepared by dissolving trimesic acid and guest in methanol a 1:8 molar ratio. The mixture was stirred at room temperature for up to 48 hours. The solution was then left undisturbed allowing for slow evaporation to take place until crystals were obtained. For particularly oily guest molecules, an additional solvent was required to dissolve trimesic acid. Successful guest uptake was confirmed by single crystal X-ray diffraction (SCXRD). Thermogravimetric analysis was used to monitor the weight loss as a function of temperature, and ^1H NMR was used to confirm the presence of both host and guest in the sample.
# In order to determine to what extent a particular guest is included within the host structure, we carried out thermal gravimetric analysis (TGA) on the resulting samples. A typical TGA measurement will record the weight-loss as a function of temperature and this will allow us to estimate the relative amount of solvent/guest/host present in a particular sample. […] The host itself begins to thermally degrade at around 250° C.
smiles,measurement,value
O=C(O)c1cc(C(=O)O)cc(C(=O)O)c1 [trimesic acid],temperature at which the host begins to thermally degrade,around 250 °C

# — patent publication US20250351820A1, “SUPRAMOLECULAR POROUS ORGANIC FRAMEWORKS FOR STORAGE AND DELIVERY OF VOLATILE GUESTS” (KANSAS STATE UNIVERSITY RESEARCH FOUNDATION, priority 2022, published 2025)
